Measurements as given in patent publication US8338488B2, “Use of at least one oxime derivative of 3,5-seco-4-nor-cholestane as antioxidants” (Trophos, priority 2007, dated 2012).

Experiments:
[1] = Pharmacokinetics in the rat, oral and intravenous routes; type: in vivo; conditions: 500 mg/kg by oral route, suspension in corn oil, i.v. reference in cremophor/ethanol/water
Experimental: A study of pharmacokinetics with administration by oral route in suspension in corn oil and by intra-venous route in solution in cremophor/ethanol/water (5%, 10%, 85%) made it possible to calculate the bioavailability of the product. The assay of the product in the plasma is carried out by a high pressure liquid chromatography method coupled with mass spectrometry.

[2] = Chemical stability of the powder under ICH storage conditions, total impurities by GC-FID; type: physicochemical; conditions: for total impurities: powder
Experimental: These analyses were carried out using a gas chromatography method coupled with an FID detector. This method makes it possible to quantify the impurities at a level of 0.2%.

[3] = Oxidation of cumene to cumene hydroperoxide by oxygen with AIBN, assayed by HPLC-UV; conditions: for % of reduction of the oxidation of the cumene / Area of the signal, in relative units, of the cumene hydroperoxide: 2 equivalents of AIBN, 2 hours 45° C.
Experimental: The oxidation of cumene at atmospheric pressure and at 37° C. by oxygen is known and described in the presence of a radical initiator such as AIBN (azobisisobutyronitrile) (Blanchard H. S., J. Am. Chem. Soc. 1959, 81, 4548). A recent publication used this reaction to classify the antioxidant potential of known products such as vitamin E (which is the universal reference), BHT (butylated hydroxytoluene) and other products.
In the following experiment we reproduced the same experimental conditions as those described in the publication of Becker D. A. et al. (J. Am. Chem. Soc. 2002, 124, 4678-4684). A high pressure liquid chromatography method coupled with a UV detector was used to detect cumene hydroperoxide. The column used is an Agilent Zorbax Eclipse XDB RPC8 column (150×4.6 mm) coupled with a UV detector fixed at 254 nm. The gradient used is detailed in the following table: […]
2 ml of cumene (AcrosOrganic) and 0.5 ml of methanol are mixed, azobisisobutyronitrile (AcrosOrganic) is added (2 equivalents) and the solution taken to 45° C. in order to accelerate the chemical reaction. The cumene hydroperoxide appears over time and is assayed by the HPLC method.
The technique used made it possible to compare the appearance of the cumene hydroperoxide in the presence of an antioxidant agent such as the claimed products and vitamin E used as reference product.

[4] = Competition with DMPO for the tBuO radical, DMPO-tBuO adduct signal measured by EPR
Experimental: The nitrones trap the radical species (R.; RO.) and allow their observation by electron paramagnetic resonance (EPR) (Degray J. et al. Electron Spin Resonance, Ed N. M. Atherton, Atheaeum Press Ltd; Cambridge, 1994, 14, 246).
The incubation of the DMPO (Interchim-U2469) (20 mM) in deoxygenated toluene (Sigma-Aldrich) in the presence of the tBuO (tert-butoxyl) radical, generated by photolysis, makes it possible to identify and quantify by EPR the signal of the DMPO-tBuO radical. This signal is inhibited in the presence of an equimolar quantity of 3,5-seco-4-nor-cholestane oxime.
The EPR signal allows integration in the form of an area of the signal of the DMPO-tBuO adduct and therefore a relative quantification of this radical entity.
All the experiments were carried out on an X-band Bruker ESP300 device (9.5 GHz) at ambient temperature. The solutions were studied in a quartz EPR tube.

[5] = test system: perfused isolated rat heart; assay: Perfused isolated rat heart, ischaemia/reperfusion, DMPO spin trapping in the coronary effluents (EPR)
Experimental: The animals used are male rats of the Sprague Dawley strain (Harlan et CERJ, France) of 250-300 g) fed ad libitum. The rats are anaesthetized by an intraperitoneal injection of sodium pentobarbital (50 mg/kg of body weight). The thoracic cavity is then opened and the heart rapidly removed and immersed in perfusion liquid (Krebs-Henseleit) at 4° C. in order to stop any contraction.
The heart with fatty tissues removed is then perfused according to Langendorff's technique by aortic retrograde route at a constant pressure of 90 cm H2O. A small incision in the pulmonary artery allows the flow and measurement of the coronary effluent over time (coronary flow rate). The time required for completion of the entire operation is two to three minutes. After ablation of the left auricle, a latex cuff is inserted into the left ventricle and filled with a volume of distilled water (50-60 μl) which remains constant during the experimental protocol, connected to a pressure sensor (GOULD) and to a differentiating recorder allowing the measurement of the following haemodynamic parameters: • intraventricular diastolic pressure (Pdia) • developed pressure of left ventricle Pdev=Psystolic−Pdia • dP/dt (first derivative of the developed pressure, cardiac contractility index in this model) • cardiac frequency (F) • cardiac work calculated according to the relationship W=Pdev×F […]

CC(C)CCC[C@@H](C)[C@H]1CC[C@H]2[C@@H]3CC/C(=N\O)[C@](C)(CCCO)[C@H]3CC[C@]12C [3,5-seco-4-nor-cholestan-5-one oxime-3-ol]
bioavailability [1]: 6%
change in the quality of the product ([2]; after 1 year's storage at 25° C.): No change in the quality
change in the quality of the product ([2]; after 6 months of storage at 40° C.): No change in the quality
total impurities ([2]; 25° C. under 60% relative humidity, T0): 0.2%
total impurities ([2]; 25° C. under 60% relative humidity, T12 months): 0.2%
total impurities ([2]; 40° C. under 75% relative humidity, T0): 0.2%
total impurities ([2]; 40° C. under 75% relative humidity, T6 months): 0.2%
reduction of the oxidation of the cumene by oxygen (conclusion) [3]: approximately 40%
% of reduction of the oxidation of the cumene ([3]; 50 μM): 25%
Area of the signal, in relative units, of the cumene hydroperoxide ([3]; 50 μM): 300 relative units
% of reduction of the oxidation of the cumene ([3]; 200 μM): 50%
Area of the signal, in relative units, of the cumene hydroperoxide ([3]; 200 μM): 200 relative units
activity compared with vitamin E ([3]; same concentrations): same order of magnitude
% inhibition of the DMPO-tBuO radical ([4]; compound 20 mM + DMPO 20 mM, 200 s): 50%
% inhibition of the DMPO-tBuO radical ([4]; compound 20 mM + DMPO 20 mM, 400 s): 66%
Area of the DMPO-tBuO signal at 200 s in relative units ([4]; compound 20 mM + DMPO 20 mM, (t-BuO)2 20 mM, photolysis at 350 nm, 200 s): 3 relative units
Area of the DMPO-tBuO signal at 400 s in relative units ([4]; compound 20 mM + DMPO 20 mM, (t-BuO)2 20 mM, photolysis at 350 nm, 400 s): 4 relative units
effect on the DMPO-tBuO EPR signal ([4]; equimolar quantity to DMPO (20 mM), deoxygenated toluene): inhibited
inhibition of the level of the DMPO-tBuO signal radical (conclusion) ([4]; equimolar with DMPO): ~60%
kinetics of inhibition of the DMPO-tBuO signal (time) ([4]; rapid kinetics): less than 10 minutes
extracellular production of free radical scavenging adducts (DMPO-OH) in the coronary effluents ([5]; 1 μM in Krebs buffer, DMPO 50 mM, reperfusion after ischaemia, p<0.05): large and significant reduction
protection with respect to the vehicle (DMPO-OH adducts, FIG. 1) ([5]; 1 μM, two groups of 6 hearts): significant protection

vitamin E [reference compound]
% of reduction of the oxidation of the cumene ([3]; 100 μM): 39%
Area of the signal, in relative units, of the cumene hydroperoxide ([3]; 100 μM): 245 relative units
